Reference: US20110190235A1, “BORON-CONTAINING SMALL MOLECULES AS ANTIPROTOZOAL AGENTS” (Anacor Pharmaceuticals, Inc., priority 2009, published 2011)
≈ marks a conversion by molar mass, not a printed value. Read-outs that look alike come from different tables or passages of the source.

Assays:
[1] = tested on: bloodstream-form trypanosome T. brucei brucei 427 strain; experiment: Trypanosoma brucei brucei high-throughput in vitro drug sensitivity assay (resazurin); format: cell-based; details: for Selectivity Index (L929 IC50 / T. b. brucei IC50): T. b. brucei vs L929; for IC50: Trypanosoma brucei, 72 hrs incubation
[2] = L929 cytotoxicity evaluation (resazurin); format: cell-based; details: mouse, L929 mouse fibroblast cells; 72 hrs incubation; read-out: Cytotox L-929 IC50
Description: For evaluation of compound effects on mammalian cells, L929 mouse fibroblast cells were used. Cells were maintained as adherent cultures in T-25 vented cap flasks in a humidified incubator at 37° C. in the presence of 5% CO2. Culture media was D-MEM supplemented with 10% fetal bovine serum and 1% penicillin/streptomycin. L929 cells were maintained below confluent levels by sub-culturing at 1:10 dilution twice weekly using 0.05% trypsin for detachment.
Sub-confluent L929 cells were trypsinized, resuspended in fresh media and 10 uL was counted using hemocytometer to determine cell concentration. Cells were diluted to 1×10^4/mL in DMEM, dispensed (100 uL) into 96-well plates using a Multidrop 384 dispenser and allowed to attach overnight. Spent media was replaced with 99.5 uL fresh D-MEM and compounds to be tested were serially diluted in DMSO and 0.5 uL added using a Biomek NX liquid handler. Plates were incubated with compounds for 72 hrs at 37° C. with 5% CO2. Resazurin (20 uL of 12.5 mg/ml stock) from Sigma-Aldrich was added to each well and plates were incubated for an additional 3-4 hrs. Assay plates were read using an EnVision plate reader at an excitation wavelength of 544 nm and emission of 590 nm. Single data points were used to generate sigmoidal dose response curves and determine IC50 values using XLfit curve fitting software from IDBS (Guildford, UK).

SMILES | IC50 ([1]; read-out: T.b. brucei IC50) [µg/mL] | Selectivity Index (L929 IC50 / T. b. brucei IC50) [1] | IC50 ([1]; read-out: T. b. brucei IC50) [nM] | IC50 at 72 h [2] [µg/mL]
COc1cccc(C(=O)Nc2ccc3c(c2)B(O)OC3C)c1 (stereo not shown) [compound 6, N-(1-Hydroxy-3-methyl-1,3-dihydro-benzo[c][1,2]oxaborol-6-yl)-3-methoxy-benzamide] | 0.046 | >217 | 155 | > 10
CC1OB(O)c2cc(NC(=O)c3cccc(F)c3)ccc21 (stereo not shown) [compound 10, 3-Fluoro-N-(1-hydroxy-3-methyl-1,3-dihydro-benzo[c][1,2]oxaborol-6-yl)-benzamide] | 0.037 | >207 | 130 | > 10
CC1OB(O)c2cc(NC(=O)c3cccc(Cl)c3)ccc21 (stereo not shown) [compound 11, 3-Chloro-N-(1-hydroxy-3-methyl-1,3-dihydro-benzo[c][1,2]oxaborol-6-yl)-benzamide] | 0.036 | 168 | 119 | 6.06 (≈ 20.1 µM)
CC1OB(O)c2cc(NC(=O)c3ccccc3I)ccc21 (stereo not shown) [compound 15, N-(1-Hydroxy-3-methyl-1,3-dihydro-benzo[c][1,2]oxaborol-6-yl)-2-iodo-benzamide] | 0.068 | 36 | 173 | 2.45 (≈ 6.23 µM)
CC1OB(O)c2cc(NC(=O)c3ccc(F)cc3Br)ccc21 (stereo not shown) [compound 16, 2-Bromo-4-fluoro-N-(1-hydroxy-3-methyl-1,3-dihydro-benzo[c][1,2]oxaborol-6-yl)-benzamide] | 0.107 | 29 | 294 | 3.06 (≈ 8.41 µM)
O=C(Nc1ccc2c(c1)B(O)OC2C1CCCC1)c1ccccc1Cl (stereo not shown) [compound 18, 2-Chloro-N-(3-cyclopentyl-1-hydroxy-1,3-dihydro-benzo[c][1,2]oxaborol-6-yl)-benzamide] | 4.22 | 2 | 11900 | 9.29 (≈ 26.1 µM)
O=C(Nc1ccc2c(c1)B(O)OC2C1CCCC1)c1ccc(F)cc1 (stereo not shown) [compound 20, N-(3-Cyclopentyl-1-hydroxy-1,3-dihydro-benzo[c][1,2]oxaborol-6-yl)-4-fluoro-benzamide] | > 5 | – | > 14500 | > 10
CC(=O)Nc1ccc2c(c1)B(O)OC2C1CCCC1 (stereo not shown) [compound 21, N-(3-Cyclopentyl-1-hydroxy-1,3-dihydro-benzo[c][1,2]oxaborol-6-yl)-acetamide] | > 5 | – | > 19300 | > 10
CC(C)CC1OB(O)c2cc(NC(=O)c3ccccc3C(F)(F)F)ccc21 (stereo not shown) [compound 22, N-(1-Hydroxy-3-isobutyl-1,3-dihydro-benzo[c][1,2]oxaborol-6-yl)-2-trifluoromethyl-benzamide] | 0.866 | >12 | 2300 | > 10
CC(C)CC1OB(O)c2cc(NC(=O)c3ccc(F)cc3)ccc21 (stereo not shown) [compound 24, 4-Fluoro-N-(1-hydroxy-3-isobutyl-1,3-dihydro-benzo[c][1,2]oxaborol-6-yl)-benzamide] | > 5 | – | > 15300 | > 10
CC(C)CC1OB(O)c2cc(NC(=O)c3ccccc3Cl)ccc21 (stereo not shown) [compound 25, 2-Chloro-N-(1-hydroxy-3-isobutyl-1,3-dihydro-benzo[c][1,2]oxaborol-6-yl)-benzamide] | > 5 | – | > 14600 | > 10
CCc1ccc(C(=O)Nc2ccc3c(c2)B(O)OC3(C)C)cc1 [compound 30, 4-Ethyl-N-(1-hydroxy-3,3-dimethyl-1,3-dihydro-benzo[c][1,2]oxaborol-6-yl)-benzamide] | 0.427 | – | – | > 10
CCCc1ccc(C(=O)Nc2ccc3c(c2)B(O)OC3(C)C)cc1 [compound 31, N-(1-Hydroxy-3,3-dimethyl-1,3-dihydro-benzo[c][1,2]oxaborol-6-yl)-4-propyl-benzamide] | 0.397 | – | – | > 10
CCCCc1ccc(C(=O)Nc2ccc3c(c2)B(O)OC3(C)C)cc1 [compound 32, 4-Butyl-N-(1-hydroxy-3,3-dimethyl-1,3-dihydro-benzo[c][1,2]oxaborol-6-yl)-benzamide] | 0.349 | – | – | > 10
CC1(C)OB(O)c2cc(NC(=O)c3cccc(C(F)(F)F)c3)ccc21 [compound 35, N-(1-Hydroxy-3,3-dimethyl-1,3-dihydro-benzo[c][1,2]oxaborol-6-yl)-3-trifluoromethyl-benzamide] | 2.74 | – | – | > 10
CC1(C)OB(O)c2cc(NC(=O)c3ccc(C(F)(F)F)cc3)ccc21 [compound 36, N-(1-Hydroxy-3,3-dimethyl-1,3-dihydro-benzo[c][1,2]oxaborol-6-yl)-4-trifluoromethyl-benzamide] | 4.05 | – | – | > 10

Further lines, with some results ahead:

IC50 ([1]; read-out: T.b. brucei IC50) [µg/mL] | SMILES | Selectivity Index (L929 IC50 / T. b. brucei IC50) [1] | IC50 ([1]; read-out: T. b. brucei IC50) [nM] | IC50 at 72 h [2] [µg/mL]
2.24 | Cc1ccccc1C(=O)Nc1ccc2c(c1)B(O)OC2(C)C [compound 27, N-(1-Hydroxy-3,3-dimethyl-1,3-dihydro-benzo[c][1,2]oxaborol-6-yl)-2-methylbenzamide] | – | – | > 10
3.17 | Cc1cccc(C(=O)Nc2ccc3c(c2)B(O)OC3(C)C)c1 [compound 28, N-(1-Hydroxy-3,3-dimethyl-1,3-dihydro-benzo[c][1,2]oxaborol-6-yl)-3-methyl-benzamide] | – | – | > 10
3.62 | Cc1ccc(C(=O)Nc2ccc3c(c2)B(O)OC3(C)C)cc1 [compound 29, N-(1-Hydroxy-3,3-dimethyl-1,3-dihydro-benzo[c][1,2]oxaborol-6-yl)-4-methyl-benzamide] | – | – | > 10
1.42 | CC1(C)OB(O)c2cc(NC(=O)c3ccccc3F)ccc21 [compound 37, 2-Fluoro-N-(1-hydroxy-3,3-dimethyl-1,3-dihydro-benzo[c][1,2]oxaborol-6-yl)-benzamide] | – | – | > 10
0.599 | CC1(C)OB(O)c2cc(NC(=O)c3ccccc3I)ccc21 [compound 40, N-(1-Hydroxy-3,3-dimethyl-1,3-dihydro-benzo[c][1,2]oxaborol-6-yl)-2-iodo-benzamide] | – | – | > 10
> 5 | CC1(C)OB(O)c2cc(NC(=O)c3cccc(F)c3)ccc21 [compound 41, 3-Fluoro-N-(1-hydroxy-3,3-dimethyl-1,3-dihydro-benzo[c][1,2]oxaborol-6-yl)-benzamide] | – | – | > 10
2.12 | CC1(C)OB(O)c2cc(NC(=O)c3cccc(Cl)c3)ccc21 [compound 42, 3-Chloro-N-(1-hydroxy-3,3-dimethyl-1,3-dihydro-benzo[c][1,2]oxaborol-6-yl)-benzamide] | – | – | > 10
2.2 | CC1(C)OB(O)c2cc(NC(=O)c3cccc(Br)c3)ccc21 [compound 43, 3-Bromo-N-(1-hydroxy-3,3-dimethyl-1,3-dihydro-benzo[c][1,2]oxaborol-6-yl)-benzamide] | – | – | > 10
3.64 | CC1(C)OB(O)c2cc(NC(=O)c3ccc(Cl)cc3)ccc21 [compound 45, 4-Chloro-N-(1-hydroxy-3,3-dimethyl-1,3-dihydro-benzo[c][1,2]oxaborol-6-yl)-benzamide] | – | – | > 10
3.01 | COc1ccccc1C(=O)Nc1ccc2c(c1)B(O)OC2(C)C [compound 46, N-(1-Hydroxy-3,3-dimethyl-1,3-dihydro-benzo[c][1,2]oxaborol-6-yl)-2-methoxy-benzamide] | – | – | > 10
